System: BTBR T+tf/J (BTBR) mice
Assay: 3-Chambered Social Test (animal vs. object)
Type: in vivo, mouse
Conditions: male BTBR-T+/tfj mice, 3-10-30 mg/kg p.o. 3 hours before habituation; effect especially in the first 5 minutes at 10 mg/kg (FIG. 2/3)
Experimental: Deficits in social interactions and social approach, unusual patterns of ultrasonic vocalization, and high levels of repetitive self-grooming are included.^20
The 3-Chambered Social Test is used to assess autistic-like behaviors. Shortly after a period of habituation a mouse's sociability is determined by evaluating the amount of time the test mouse spends approaching a wire cage (holding cup) containing an unfamiliar mouse.
48 male mice BTBR-T+/tfj, 8-9 weeks old, were used in the experiments described herein in 4 groups n=12/group. Further, 6 male stimulus mice (unfamiliar BTBR T+tf/J mice) of similar age and weight were used.
Low light of 20 Lux was used. With the doorways into the two side chambers closed, the test mouse was placed in the middle chamber and allowed to explore the apparatus for 10 min. Thereafter, the doorways were opened and the test mouse was allowed to explore the entire test box for 10 min. The cages were empty. The sociability test was conducted immediately following the habituation phase.
While the test mouse was enclosed in the center compartment of the test box a stimulus mouse was enclosed in a wire cage (holding cup) in one side chamber. […] The amount of time spent and the number of entries into each chamber was measured, as was the time spent in a small perimeter around the cup holding the stimulus mouse. […]

How did the “social preference (duration in the chamber, duration sniffing)” value turn out when CCC(=O)NS(=O)(=O)c1cccc(-c2cccc(-c3cc(-c4ccc(C(F)(F)F)cc4)cc(C)n3)n2)c1 [IIb] was run?
The value was “increased social preference”.

Reference: patent US20150252049A1, “MGLU2/3 ANTAGONISTS FOR THE TREATMENT OF AUTISTIC DISORDERS” (Hoffmann-La Roche Inc., priority 2012, published 2015)
